# From the kinase profiling compilation of Christmann-Franck et al. (2016)
# Tests used:
# Assay in all cases: radiometric filter-binding kinase assay, Kinase HotSpot
# Conditions in all cases: compound 0.5 µM; ATP 10 µM
# FGR (human) = FGR (human) (UniProt P09769)
# CAMK4 (human) = CAMK4 (human) (UniProt Q16566)
# FGFR1 (human) = FGFR1 (human) (UniProt P11362)
# PHKG1 (human) = PHKG1 (human) (UniProt Q16816)
# RPS6KA3 KD1 KD2 (human) = RPS6KA3 KD1 KD2 (human) (UniProt P51812)
# INSRR (human) = INSRR (human) (UniProt P14616)
# EPHA3 (human) = EPHA3 (human) (UniProt P29320)
# PLK1 (human) = PLK1 (human) (UniProt P53350)
# HIPK4 (human) = HIPK4 (human) (UniProt Q8NE63)
# TSSK2 (human) = TSSK2 (human) (UniProt Q96PF2)
# MST1R (human) = MST1R (human) (UniProt Q04912)
# MET (human) = MET (human) (UniProt P08581)
# LTK (human) = LTK (human) (UniProt P29376)
# TAOK2 (human) = TAOK2 (human) (UniProt Q9UL54)
# PAK6 (human) = PAK6 (human) (UniProt Q9NQU5)
# CSK (human) = CSK (human) (UniProt P41240)
# NEK1 (human) = NEK1 (human) (UniProt Q96PY6)
# HIPK2 (human) = HIPK2 (human) (UniProt Q9H2X6)
# SGK3 (human) = SGK3 (human) (UniProt Q96BR1)
# AURKC (human) = AURKC (human) (UniProt Q9UQB9)
# TSSK1B (human) = TSSK1B (human) (UniProt Q9BXA7)
# CLK1 (human) = CLK1 (human) (UniProt P49759)
# IRAK1 (human) = IRAK1 (human) (UniProt P51617)
# NEK9 (human) = NEK9 (human) (UniProt Q8TD19)
# KIT (human) = KIT (human) (UniProt P10721)
# CDC42BPB (human) = CDC42BPB (human) (UniProt Q9Y5S2)
# CDK3 CCNE1 (human) = CDK3 CCNE1 (human) (UniProt Q00526+P24864)
# MAPK8 (human) = MAPK8 (human) (UniProt P45983)
# ACVR1 (human) = ACVR1 (human) (UniProt Q04771)
# DAPK3 (human) = DAPK3 (human) (UniProt O43293)
# TXK (human) = TXK (human) (UniProt P42681)
# PRKCD (human) = PRKCD (human) (UniProt Q05655)
# HIPK3 (human) = HIPK3 (human) (UniProt Q9H422)
# CSNK2A1 (human) = CSNK2A1 (human) (UniProt P68400)
# Chain of NEK1 (human) (Q96PY6 whole entry, looked up): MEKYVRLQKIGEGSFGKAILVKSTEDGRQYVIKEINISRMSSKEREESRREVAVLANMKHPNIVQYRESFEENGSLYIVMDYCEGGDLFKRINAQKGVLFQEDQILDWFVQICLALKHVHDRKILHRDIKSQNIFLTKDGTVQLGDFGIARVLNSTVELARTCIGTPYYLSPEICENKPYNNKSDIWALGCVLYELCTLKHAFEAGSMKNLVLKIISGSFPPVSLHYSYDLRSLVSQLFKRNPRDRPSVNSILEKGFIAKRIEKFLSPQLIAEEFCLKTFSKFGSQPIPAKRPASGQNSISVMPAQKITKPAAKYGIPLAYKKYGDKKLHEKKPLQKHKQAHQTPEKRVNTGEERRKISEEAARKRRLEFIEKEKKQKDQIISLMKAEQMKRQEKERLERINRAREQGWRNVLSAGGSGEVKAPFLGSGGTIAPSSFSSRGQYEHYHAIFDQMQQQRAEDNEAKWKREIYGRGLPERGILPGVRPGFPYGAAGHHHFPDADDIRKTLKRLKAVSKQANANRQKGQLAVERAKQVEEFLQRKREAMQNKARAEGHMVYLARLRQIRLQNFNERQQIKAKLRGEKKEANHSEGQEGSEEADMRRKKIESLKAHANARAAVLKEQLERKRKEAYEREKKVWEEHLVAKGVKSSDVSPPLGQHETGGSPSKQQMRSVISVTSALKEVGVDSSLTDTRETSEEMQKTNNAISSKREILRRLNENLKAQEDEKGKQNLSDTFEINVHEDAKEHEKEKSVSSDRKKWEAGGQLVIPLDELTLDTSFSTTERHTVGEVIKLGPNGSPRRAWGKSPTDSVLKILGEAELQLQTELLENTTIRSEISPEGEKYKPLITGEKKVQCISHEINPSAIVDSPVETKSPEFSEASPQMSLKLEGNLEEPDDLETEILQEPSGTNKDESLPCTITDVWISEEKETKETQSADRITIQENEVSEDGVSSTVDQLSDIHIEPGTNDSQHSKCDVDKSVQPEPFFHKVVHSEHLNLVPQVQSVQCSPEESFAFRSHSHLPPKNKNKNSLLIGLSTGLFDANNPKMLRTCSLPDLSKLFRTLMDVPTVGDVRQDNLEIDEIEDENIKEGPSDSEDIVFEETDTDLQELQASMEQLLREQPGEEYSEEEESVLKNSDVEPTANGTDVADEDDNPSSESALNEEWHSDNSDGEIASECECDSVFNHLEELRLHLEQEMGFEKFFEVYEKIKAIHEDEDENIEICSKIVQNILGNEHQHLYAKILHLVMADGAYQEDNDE
# Chain of CAMK4 (human) (Q16566 whole entry, looked up): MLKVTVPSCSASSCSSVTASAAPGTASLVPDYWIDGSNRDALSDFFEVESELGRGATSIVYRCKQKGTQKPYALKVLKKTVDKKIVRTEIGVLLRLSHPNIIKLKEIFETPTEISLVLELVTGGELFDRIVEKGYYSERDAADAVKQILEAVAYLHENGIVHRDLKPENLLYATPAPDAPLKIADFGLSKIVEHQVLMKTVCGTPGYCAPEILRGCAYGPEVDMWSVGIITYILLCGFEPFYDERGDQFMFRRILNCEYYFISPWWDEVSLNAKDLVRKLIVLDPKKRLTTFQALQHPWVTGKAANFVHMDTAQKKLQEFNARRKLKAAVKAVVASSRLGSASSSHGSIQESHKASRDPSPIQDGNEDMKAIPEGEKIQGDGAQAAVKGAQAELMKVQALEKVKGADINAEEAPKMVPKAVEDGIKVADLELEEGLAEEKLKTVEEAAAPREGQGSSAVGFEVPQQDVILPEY
# Chain of MST1R (human) (Q04912 whole entry, looked up): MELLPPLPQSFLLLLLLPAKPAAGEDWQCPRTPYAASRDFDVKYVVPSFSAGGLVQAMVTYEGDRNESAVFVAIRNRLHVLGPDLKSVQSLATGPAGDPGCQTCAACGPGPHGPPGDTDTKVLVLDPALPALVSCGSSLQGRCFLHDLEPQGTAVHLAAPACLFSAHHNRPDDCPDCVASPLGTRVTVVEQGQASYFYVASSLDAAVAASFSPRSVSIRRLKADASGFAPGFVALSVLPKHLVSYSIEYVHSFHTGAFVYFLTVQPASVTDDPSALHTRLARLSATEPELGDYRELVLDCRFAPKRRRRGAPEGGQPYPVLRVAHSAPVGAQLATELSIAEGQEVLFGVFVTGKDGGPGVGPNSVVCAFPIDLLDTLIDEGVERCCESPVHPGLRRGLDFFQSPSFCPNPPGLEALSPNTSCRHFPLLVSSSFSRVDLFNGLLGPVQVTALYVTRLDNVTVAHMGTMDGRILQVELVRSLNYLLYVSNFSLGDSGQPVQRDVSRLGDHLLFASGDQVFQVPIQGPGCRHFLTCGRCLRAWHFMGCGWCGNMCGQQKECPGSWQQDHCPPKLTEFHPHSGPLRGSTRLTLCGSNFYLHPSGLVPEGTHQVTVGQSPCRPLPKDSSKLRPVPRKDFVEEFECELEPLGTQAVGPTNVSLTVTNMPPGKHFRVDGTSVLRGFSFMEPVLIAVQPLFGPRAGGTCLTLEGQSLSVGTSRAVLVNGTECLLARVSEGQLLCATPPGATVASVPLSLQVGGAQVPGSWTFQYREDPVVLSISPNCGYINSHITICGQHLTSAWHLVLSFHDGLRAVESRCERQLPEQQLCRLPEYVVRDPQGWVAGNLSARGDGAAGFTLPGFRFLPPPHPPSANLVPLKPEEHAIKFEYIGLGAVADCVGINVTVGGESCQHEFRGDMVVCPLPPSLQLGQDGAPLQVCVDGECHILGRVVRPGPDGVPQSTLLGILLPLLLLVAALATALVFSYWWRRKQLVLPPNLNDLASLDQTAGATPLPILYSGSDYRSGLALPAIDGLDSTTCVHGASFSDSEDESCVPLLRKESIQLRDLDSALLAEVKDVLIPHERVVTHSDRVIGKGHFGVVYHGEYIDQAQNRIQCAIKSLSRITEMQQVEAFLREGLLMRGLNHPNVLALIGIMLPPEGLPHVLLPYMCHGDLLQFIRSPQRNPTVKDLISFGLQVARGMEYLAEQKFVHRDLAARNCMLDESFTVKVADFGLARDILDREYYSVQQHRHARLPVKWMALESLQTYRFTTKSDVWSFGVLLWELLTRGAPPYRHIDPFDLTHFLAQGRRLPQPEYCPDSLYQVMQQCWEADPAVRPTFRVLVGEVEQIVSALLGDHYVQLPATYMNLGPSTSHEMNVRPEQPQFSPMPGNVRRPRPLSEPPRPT
# Chain of EPHA3 (human) (P29320 whole entry, looked up): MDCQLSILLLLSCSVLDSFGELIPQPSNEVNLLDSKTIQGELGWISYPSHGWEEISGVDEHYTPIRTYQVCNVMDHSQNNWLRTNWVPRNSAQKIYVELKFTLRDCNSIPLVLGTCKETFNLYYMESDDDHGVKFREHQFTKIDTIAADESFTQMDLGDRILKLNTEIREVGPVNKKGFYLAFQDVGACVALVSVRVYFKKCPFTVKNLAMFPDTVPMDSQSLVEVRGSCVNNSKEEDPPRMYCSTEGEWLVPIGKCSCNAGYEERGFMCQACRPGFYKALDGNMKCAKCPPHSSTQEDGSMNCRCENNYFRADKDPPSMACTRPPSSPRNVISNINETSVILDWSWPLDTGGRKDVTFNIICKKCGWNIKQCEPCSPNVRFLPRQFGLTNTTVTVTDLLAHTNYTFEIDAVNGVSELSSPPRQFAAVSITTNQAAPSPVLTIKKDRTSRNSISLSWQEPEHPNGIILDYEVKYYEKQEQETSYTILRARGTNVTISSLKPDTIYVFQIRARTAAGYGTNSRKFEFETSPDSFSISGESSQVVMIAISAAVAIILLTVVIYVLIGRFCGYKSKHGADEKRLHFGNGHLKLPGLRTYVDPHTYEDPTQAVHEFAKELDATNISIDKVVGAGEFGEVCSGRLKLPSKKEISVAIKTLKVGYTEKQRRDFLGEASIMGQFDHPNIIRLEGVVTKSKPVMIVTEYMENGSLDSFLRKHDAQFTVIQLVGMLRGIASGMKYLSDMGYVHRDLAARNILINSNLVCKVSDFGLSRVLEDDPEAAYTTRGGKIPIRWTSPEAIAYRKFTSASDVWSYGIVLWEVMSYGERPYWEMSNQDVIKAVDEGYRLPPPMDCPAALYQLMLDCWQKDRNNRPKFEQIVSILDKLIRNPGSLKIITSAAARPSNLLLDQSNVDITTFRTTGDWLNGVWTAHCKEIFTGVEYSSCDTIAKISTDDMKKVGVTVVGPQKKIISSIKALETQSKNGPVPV
# Chain of TSSK2 (human) (Q96PF2 whole entry, looked up): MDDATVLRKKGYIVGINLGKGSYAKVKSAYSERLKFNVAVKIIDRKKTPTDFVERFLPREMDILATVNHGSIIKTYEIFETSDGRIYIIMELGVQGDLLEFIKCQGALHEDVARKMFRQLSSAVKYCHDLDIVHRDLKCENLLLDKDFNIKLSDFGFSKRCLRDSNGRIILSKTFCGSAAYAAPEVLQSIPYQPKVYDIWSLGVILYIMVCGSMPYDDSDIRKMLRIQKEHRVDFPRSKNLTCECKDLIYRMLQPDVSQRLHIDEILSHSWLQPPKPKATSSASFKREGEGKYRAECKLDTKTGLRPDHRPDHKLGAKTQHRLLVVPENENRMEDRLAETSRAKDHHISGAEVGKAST
# Chain of PHKG1 (human) (Q16816 whole entry, looked up): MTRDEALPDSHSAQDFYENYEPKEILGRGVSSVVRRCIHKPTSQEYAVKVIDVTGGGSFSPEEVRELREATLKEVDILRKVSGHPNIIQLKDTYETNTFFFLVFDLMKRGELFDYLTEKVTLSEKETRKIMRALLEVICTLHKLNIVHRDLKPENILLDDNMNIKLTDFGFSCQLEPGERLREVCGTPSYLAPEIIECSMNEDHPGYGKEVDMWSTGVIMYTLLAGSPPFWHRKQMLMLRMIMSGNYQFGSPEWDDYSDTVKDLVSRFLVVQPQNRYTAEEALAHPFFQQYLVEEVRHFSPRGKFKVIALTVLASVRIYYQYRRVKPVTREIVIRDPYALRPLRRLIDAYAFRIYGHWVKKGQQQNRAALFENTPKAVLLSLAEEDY
SMILES,residual activity (FGR (human)) [%],residual activity (CAMK4 (human)) [%],residual activity (FGFR1 (human)) [%],residual activity (PHKG1 (human)) [%],residual activity (RPS6KA3 KD1 KD2 (human)) [%],residual activity (INSRR (human)) [%],residual activity (EPHA3 (human)) [%],residual activity (PLK1 (human)) [%],residual activity (HIPK4 (human)) [%],residual activity (TSSK2 (human)) [%],residual activity (MST1R (human)) [%],residual activity (MET (human)) [%],residual activity (LTK (human)) [%],residual activity (TAOK2 (human)) [%],residual activity (PAK6 (human)) [%],residual activity (CSK (human)) [%],residual activity (NEK1 (human)) [%],residual activity (HIPK2 (human)) [%],residual activity (SGK3 (human)) [%],residual activity (AURKC (human)) [%],also measured
Cc1nc2cc3nc(-c4cccs4)cnc3cc2n1C,89.3,94.7,88.8,98.2,96.3,99.5,102,109,103,98.2,107,111,95.2,99.7,96.6,101,94,107,105,93.3,residual activity (TSSK1B (human)): 91.3%; residual activity (CLK1 (human)): 111%; residual activity (IRAK1 (human)): 113%; residual activity (NEK9 (human)): 105%; residual activity (KIT (human)): 40.4%; residual activity (CDC42BPB (human)): 100%; residual activity (CDK3 CCNE1 (human)): 93.6%; residual activity (MAPK8 (human)): 93.7%; residual activity (ACVR1 (human)): 99.3%; residual activity (DAPK3 (human)): 102%; residual activity (TXK (human)): 102%; residual activity (PRKCD (human)): 78.6%; residual activity (HIPK3 (human)): 101%; residual activity (CSNK2A1 (human)): 101%
O=C1Nc2ccccc2/C1=C1/Nc2ccccc2/C1=N\OCCC(O)CO (stereo not drawn),11.6,93.6,27.9,8.06,18.3,2.77,69,103,108,96.2,101,123,34.7,83.4,93.5,86.3,92.9,97.6,100,43.2,residual activity (TSSK1B (human)): 76.6%; residual activity (CLK1 (human)): 36.6%; residual activity (IRAK1 (human)): 34.5%; residual activity (NEK9 (human)): 73.6%; residual activity (KIT (human)): 44.8%; residual activity (CDC42BPB (human)): 96.6%; residual activity (CDK3 CCNE1 (human)): 65.2%; residual activity (MAPK8 (human)): 101%; residual activity (ACVR1 (human)): 199%; residual activity (DAPK3 (human)): 66.6%; residual activity (TXK (human)): 25.6%; residual activity (PRKCD (human)): 80.6%; residual activity (HIPK3 (human)): 66.2%; residual activity (CSNK2A1 (human)): 57.6%
O=C(O)/C=C/c1cc(Br)c(Br)c(Br)c1Br,98.4,103,95.2,87.6,41.2,88.2,92.3,68.7,102,98.1,87.1,84.5,94.5,88.9,110,103,85.4,82.2,85.7,90.3,residual activity (TSSK1B (human)): 79.2%; residual activity (CLK1 (human)): 98.5%; residual activity (IRAK1 (human)): 94.4%; residual activity (NEK9 (human)): 94.7%; residual activity (KIT (human)): 89.2%; residual activity (CDC42BPB (human)): 97.4%; residual activity (CDK3 CCNE1 (human)): 98.3%; residual activity (MAPK8 (human)): 86.8%; residual activity (ACVR1 (human)): 92.1%; residual activity (DAPK3 (human)): 90.2%; residual activity (TXK (human)): 98.7%; residual activity (PRKCD (human)): 93.9%; residual activity (HIPK3 (human)): 96.7%; residual activity (CSNK2A1 (human)): 13.1%
CC(C)c1nn(-c2c(Cl)cccc2Cl)c2nc(Cc3ccc(OCCO)cc3)nc(O)c12,92,102,84.2,87,88.4,94.2,86.2,93.9,94.7,105,97.5,91,87.4,93.3,102,106,90.9,104,92.6,87.6,residual activity (TSSK1B (human)): 104%; residual activity (CLK1 (human)): 94.7%; residual activity (IRAK1 (human)): 99.2%; residual activity (NEK9 (human)): 97.3%; residual activity (KIT (human)): 71%; residual activity (CDC42BPB (human)): 105%; residual activity (CDK3 CCNE1 (human)): 6.14%; residual activity (MAPK8 (human)): 95.4%; residual activity (ACVR1 (human)): 94.7%; residual activity (DAPK3 (human)): 104%; residual activity (TXK (human)): 101%; residual activity (PRKCD (human)): 108%; residual activity (HIPK3 (human)): 99%; residual activity (CSNK2A1 (human)): 88.8%
O=C1NC(=O)C(c2cn(CCCO)c3ncccc23)=C1c1cnccn1,108,95.6,81.2,87.2,91.3,93.2,102,103,104,119,96.1,121,90.9,88.1,78.2,86.9,91.9,96.6,124,113,residual activity (TSSK1B (human)): 94.9%; residual activity (CLK1 (human)): 88.5%; residual activity (IRAK1 (human)): 76.6%; residual activity (NEK9 (human)): 93.4%; residual activity (KIT (human)): 93%; residual activity (CDK3 CCNE1 (human)): 89.4%; residual activity (MAPK8 (human)): 99.6%; residual activity (ACVR1 (human)): 97%; residual activity (DAPK3 (human)): 80.2%; residual activity (TXK (human)): 75.3%; residual activity (PRKCD (human)): 97%; residual activity (HIPK3 (human)): 89.2%; residual activity (CSNK2A1 (human)): 78.9%
CC(=O)O/N=C1\C(=C2\C(=O)Nc3cc(Br)ccc32)Nc2ccccc21,14.8,86.1,68.8,67.7,91.9,96.7,88.2,105,95.5,101,92.8,98.2,83.3,84.4,74.8,75.5,94.7,99.1,100,86,residual activity (TSSK1B (human)): 92.4%; residual activity (CLK1 (human)): 83.3%; residual activity (IRAK1 (human)): 67.4%; residual activity (NEK9 (human)): 86.7%; residual activity (KIT (human)): 62.3%; residual activity (CDC42BPB (human)): 94.7%; residual activity (CDK3 CCNE1 (human)): 36.3%; residual activity (MAPK8 (human)): 88.9%; residual activity (ACVR1 (human)): 102%; residual activity (DAPK3 (human)): 82.2%; residual activity (TXK (human)): 46.4%; residual activity (PRKCD (human)): 97%; residual activity (HIPK3 (human)): 76.7%; residual activity (CSNK2A1 (human)): 81.8%
